In patent publication US20110313032A1, “COMPETITIVE INHIBITORS OF TYPE II DEHYDROQUINASE ENZYME” (priority 2008, published 2011) one finds melting point, Ki and Km data, which are given here for 22 compounds.

For series [1], the target named is T1, type II dehydroquinase from Mycobacterium tuberculosis (Mycobacterium tuberculosis, UniProt P9WPX7). The experiment in a line: biochemical. Particulars: pH = 7.0, 25° C., 50 mM Tris•HOAc. The protocol: (§1) Effect of compounds of formula I of the invention on the catalytic activity of the type II dehydroquinase from various sources. The inhibitory potency of compounds I of the invention against type II dehydroquinases from Mycobacterium tuberculoris, Streptomyces coelicolor and Helicobacter pylori were assayed as it is described in the following articles: 1) Sanchez-Sixto, C.; Prazeres, V. F. V.; Castedo, L.; Lamb, H.; Hawkins, A. R.; Gonzalez-Bello, C. J. Med. Chem. 2005, 48, 4871; 2) Prazeres, V. F. V.; Sanchez-Sixto, C.; Castedo, L.; Lamb, H.; Hawkins, A. R.; Riboldi-Tunnicliffe; Coggins, J. R.; Lapthorn, A. J.; González-Bello, C. Chem Med Chem 2007, 2, 194; and 3) Sanchez-Sixto, C.; Prazeres, V. F. V.; Castedo, L.; S. W. Suh, Lamb, H.; Hawkins, A. R.; Canada, F. J.; Jiménez-Barbero, J.; González-Bello, C. Chem Med Chem 2008, 3, 756.

For series [2], the target named is T2, type II dehydroquinase from Helicobacter pylori (Helicobacter pylori, UniProt Q48255).
T2 sequence (Q48255 1-167): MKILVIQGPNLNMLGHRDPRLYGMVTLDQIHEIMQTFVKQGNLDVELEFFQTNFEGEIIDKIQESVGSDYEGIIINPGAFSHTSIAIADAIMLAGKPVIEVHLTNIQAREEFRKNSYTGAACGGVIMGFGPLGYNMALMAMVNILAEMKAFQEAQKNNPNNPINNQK
The experiment in a line: Inhibition of type II dehydroquinase from Helicobacter pylori (Ki). The format is biochemical. Particulars: pH = 7.0, 25° C., 50 mM Tris•HCl. On the procedure:
as §1

The target of series [3] is type II dehydroquinase from Streptomyces coelicolor (Streptomyces coelicolor, UniProt P15474). The experiment in a line: Inhibition of type II dehydroquinase from Streptomyces coelicolor (Ki). The format is biochemical. On the procedure:
as §1

The target of series [4] is T2, type II dehydroquinase from Helicobacter pylori. Particulars: read-out: Km of natural substrate, H. pylori; cited from earlier work.
Series [5] has as its target T1, type II dehydroquinase from Mycobacterium tuberculosis. Particulars: read-out: Km of natural substrate, M. tuberculosis; cited from earlier work.
The mark [6] stands for this setting: Inhibition constants Ki, M. tuberculosis.
Setting [7] is: read-out: Inhibition constants Ki, H. pylori.
Where [8] appears, read: Inhibition constants Ki, S. coelicolor, pH = 7.0, 25° C., 50 mM Tris•HCl.
Setting [9] is: read-out: Inhibition constants Ki, M. tuberculosis.
[10] abbreviates: Inhibition constants Ki, H. pylori.
Setting [11] is: pH = 7.0, 25° C., 50 mM Tris•HCl, read-out: Inhibition constants Ki, S. coelicolor.

pKi: −log10 of the molar value. Where a name gives a salt, the structure may show the parent alone. Read-outs that look alike come from different tables or passages of the source.

type II dehydroquinase from Streptomyces coelicolor, sequence (P15474 whole entry): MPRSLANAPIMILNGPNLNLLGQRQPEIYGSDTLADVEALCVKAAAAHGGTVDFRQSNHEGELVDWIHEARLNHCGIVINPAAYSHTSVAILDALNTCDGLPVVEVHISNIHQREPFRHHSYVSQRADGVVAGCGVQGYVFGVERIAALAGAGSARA
T1 sequence (P9WPX7 whole entry): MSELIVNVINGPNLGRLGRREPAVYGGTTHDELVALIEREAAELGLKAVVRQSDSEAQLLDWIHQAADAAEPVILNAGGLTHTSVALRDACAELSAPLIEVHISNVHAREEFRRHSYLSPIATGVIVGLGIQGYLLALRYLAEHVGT

`O=C(O)[C@@]1(O)C[C@@H](O)[C@H](O)C(OCc2cccs2)=C1Cc1cccs1` (as salt: sodium) (hydrate or solvate) [Ib-8] yielded a melting point of 178 to 181 °C.

Turning to `O=C(O)[C@]1(O)C=C(OCc2ccc3ccccc3c2)[C@@H](O)[C@H](O)C1` (as salt: sodium) (hydrate or solvate) [Ib-.10, Sodium (1R,4S,5R)-1,4-trihydroxy-3-(2-naphyl)methoxycyclohex-2-en-1-carboxylate], the melting point was 54 °C (dec.).

`C=CC[C@H]1C(=O)[C@@H](O)[C@H](O)C[C@]1(O)C(=O)O` (hydrate or solvate) [(2R)-Ia-1, (2R)-2-allyl-3-dehydroquinic acid] yielded a melting point of 144 to 148 °C.

For the compound `C=CC[C@@H]1C(=O)[C@@H](O)[C@H](O)C[C@]1(O)C(=O)O` (hydrate or solvate) [(2S)-Ia-1, (2S)-2-allyl-3-dehydroquinic acid], the melting point lay in the range of 127 to 130 °C.

Consider `O=C([O-])[C@]1(O)C=C(OCc2ccc3sccc3c2)[C@@H](O)[C@H](O)C1.[Na+]` (hydrate or solvate) [Ib-7, Sodium (1R,4S,5R)-1,4,5-trihydroxy-3[(benzo[b]thiophen-5-yl)methoxy]cyclohex-2-en-1-carboxylate], for which the melting point is 157 to 160 °C (dec.).

In the case of `O=C([O-])[C@@]1(O)C[C@@H](O)[C@H](O)C(OCc2ccc3ccccc3c2)=C1Cc1ccc2ccccc2c1.[Na+]` (hydrate or solvate) [Ib-11, Sodium (1R,4S,5R)-1,4,5-trihydroxy-3-(naphth-2-yl)methoxy-2-(naphth-2-yl)methylcyclohex-2-en-1-carboxylate], the melting point lay within 184 to 187 °C.

Turning to `O=C([O-])[C@@]1(O)C[C@@H](O)[C@H](O)C(OCc2cccs2)=C1Cc1cc2ccccc2s1.[Na+]` (hydrate or solvate) [Ib-12, Sodium (1R,4S,5R)-1,4,5-trihydroxy-3-(thien-2-yl)methoxy-2-(benzo[b]thiophen-2-yl)methylcyclohex-2-en-1-carboxylate], the melting point fell in the range of 191 to 194 °C.

Take `O=C([O-])[C@@]1(O)C[C@@H](O)[C@H](O)C(OCc2ccc3sccc3c2)=C1Cc1cccs1.[Na+]` (hydrate or solvate) [Ib-13, Sodium (1R,4S,5R)-1,4,5-trihydroxy-3-(benzo[b]thiophen-5-yl)methoxy-2-(thien-2-yl)methylcyclohex-2-en-1-carboxylate]: the melting point was 184 °C (dec.).

As for `Cc1cc2c(s1)[C@@H](O)[C@H](O)C[C@]2(O)C(=O)O` (hydrate or solvate) [Ic-2, (4R, 6R, 7S)-4,6,7-trihydroxy-2-methyl-4,5,6,7-tetrahydrobenzo[b]thiophen-4-carboxylic acid], the melting point was in the range of 92 to 95 °C.

In turn, `Cc1ccc(CC2C(=O)C(O)C(O)CC2(O)C(=O)O)cc1` (single isomer, unassigned) (hydrate or solvate) [(2R)-Ia-4] registered a melting point of 105 to 108 °C.

Turning to `O=C1C(O)C(O)CC(O)(C(=O)O)C1Cc1c(F)c(F)c(F)c(F)c1F` (single isomer, unassigned) (hydrate or solvate) [(2S)-Ia-6], the melting point is 123 to 125 °C.

On to `Cc1ccc(CC2C(=O)C(O)C(O)CC2(O)C(=O)O)cc1` (single isomer, unassigned) [(2S)-Ia-4], for which the melting point was 134 to 138 °C. Further, the pKi in series [1] (setting [6]) is 7.05. In addition, in series [2] (setting [7]), the pKi is 6.01. This compound also gave a pKi in series [3] (setting [8]) of 6.82.

Compound `COc1ccc(CC2C(=O)C(O)C(O)CC2(O)C(=O)O)cc1` (single isomer, unassigned) [(2S)-Ia-5] registered a melting point of 138 to 143 °C. Also, in series [1] (setting [6]), the pKi is 7.00. For the same compound, the pKi in series [3] (setting [8]) is 6.47.

`O=C1C(O)C(O)CC(O)(C(=O)O)C1Cc1ccc2sccc2c1` (single isomer, unassigned) [(2S)-Ia-7] came in with a melting point of 152 to 155 °C. In series [1] (setting [6]), this compound showed a pKi of 7.26. For the same compound, in series [2] (setting [7]), the pKi is 6.05. For the same compound, the pKi in series [3] (setting [8]) was 7.42.

Consider `O=C1[C@@H](O)[C@H](O)C[C@](O)(C(=O)O)[C@H]1Cc1ccccc1` [(2R)-Ia-3, (2R)-2-benzyl-3-dehydroquinic acid], for which the melting point lay in the range of 146 to 148 °C. Further, in series [1] (setting [9]), the pKi was 7.00. Moreover, in series [2] (setting [7]), the pKi is 5.85. In series [3] (setting [8]), the pKi was 5.81.

Regarding `O=C1[C@@H](O)[C@H](O)C[C@](O)(C(=O)O)[C@@H]1Cc1ccccc1` [(2S)-Ia-3, (2S)-2-benzyl-3-dehydroquinic acid], the melting point fell in the range of 131 to 134 °C. For the same compound, the pKi in series [1] (setting [9]) was 7.05. Moreover, the pKi in series [2] (setting [7]) is 5.93. This compound also gave a pKi in series [3] (setting [8]) of 5.98.

As for `O=C(O)[C@@]1(O)C[C@@H](O)[C@H](O)c2sccc21` [Ic-1, (4R, 6R, 7S)-4,6,7-trihydroxy-4,5,6,7-tetrahydrobenzo[b]thiophen-4-carboxylic acid], the melting point lay in the range of 128 to 131 °C. In addition, the pKi in series [1] (setting [6]) is 5.52. Further, the pKi in series [2] (setting [10]) was 4.47. For the same compound, the pKi in series [3] (setting [11]) was 5.01.

As to `O=C(O)[C@@]1(O)C[C@@H](O)[C@H](O)c2sc(/C=C/C3CC3)cc21` [Ic-6], the melting point fell in the range of 103 to 105 °C. In series [1] (setting [6]), this compound gave a pKi of 6.96. Further, the pKi in series [2] (setting [10]) was 5.97. Moreover, the pKi in series [3] (read-out: affinities in the case of S. coelicolor) was 9.52.

Compound `O=C(O)[C@@]1(O)C[C@@H](O)[C@H](O)c2sc(-c3ccccc3)cc21` [Ic-7, (4R,6R,7S)-4,6,7-trihyclroxy-2-phenyl-4,5,6,7-tetrahydroben-zo[b]thiophen-4-carboxylic acid] gave a melting point of 168 to 173 °C. Also, the pKi in series [1] (setting [6]) is 7.01. Also, the pKi in series [2] (setting [10]) is < 3.82. Also, the pKi in series [3] (setting [11]) was 7.07.

`CCc1cc2c(s1)[C@@H](O)[C@H](O)C[C@]2(O)C(=O)O` [Ic-9, (4R,6R,7S)-2-ethyl-4,6,7-trihydroxy-4,5,6,7-tetrahydrobenzo[b]thiophen-4-carboxylic acid]: the melting point is 130 °C (dec.). In series [1] (setting [6]), the pKi was 6.73. In series [2] (setting [10]), this compound gave a pKi of 5.47. Also, in series [3] (setting [11]), the pKi is 6.10.

As for `O=C(O)[C@@]1(O)C[C@@H](O)[C@H](O)c2sc(/C=C/c3ccccc3)cc21` [Ic-11], the melting point is 200 °C (dec.). Moreover, in series [2] (setting [10]), the pKi is 4.80. For the same compound, the pKi in series [3] (setting [11]) was 6.82.

With `O=C1C[C@@](O)(C(=O)O)C[C@@H](O)[C@@H]1O` [natural substrate], the Km in series [4] was 444 µM; in series [5], 40 µM.

The melting point is the temperature, or range, at which the solid turns liquid. Broadly, the Km is the concentration of substrate that gives half-maximal velocity.
